From patent US20160058829A1, “ANTI-FIBROTIC PEPTIDES AND THEIR USE IN METHODS FOR TREATING DISEASES AND DISORDERS CHARACTERIZED BY FIBROSIS” (Thrasos Innovation, Inc., priority 2011, published 2016)
Positions of bridges follow the written chain, without caps; N, C: chain ends.

How the values were obtained:
[1] = system: BALB/c mice with bleomycin-induced lung fibrosis; test: Bleomycin (plus cyclophosphamide)-induced pulmonary fibrosis in BALB/c mice
Method: The endpoints in this model are survival and histomorphometric evaluation of the extent of fibrosis in lung tissue.
The test compound, in lyophilized form, is dissolved in 50 mM acetate buffer, pH 4.5 at an initial concentration of 20 mg/mL. The stock solution is then divided into several one mL aliquots, snap frozen and stored at −70° C. until used. On the Day of use, each aliquot is thawed and further diluted to a required working concentration in PBS, pH 7.5. The working concentration is determined from the intended dose (mg/kg body weight) and the oral administration volume.
In addition, the mice are administered a single intraperitoneal injection of cyclophosphamide (150 mg/kg of body weight). The animals challenged with Bleomycin plus Cyclophosphamide are separated into two groups, each group having a minimum of 6 animals. The vehicle treated group (Group 1) receives daily oral doses of PBS, pH 7.5. […] These treatments are continued for up to 16 days after Bleomycin administration. A third control group of mice receive intra-tracheal PBS rather than Bleomycine and Cyclophosphamide.
After completion of the in-life study, the animals are euthanized (methoxyflurane anesthesia), and the lungs are perfused with ice cold Hank's balanced salt solution to remove blood-born cells, and then inflated under a constant pressure of 30 cm H2O with 10% normal buffered formalin (NBF). Lungs are ligated at the trachea, removed en bloc, and immersed in NBF for 24 hr. After which, tissue samples are changed to 70% alcohol before paraffin embedding, followed by sectioning and staining with hematoxylin, eosin and Masson's Trichrome. Sections are analyzed microscopically to evaluate pulmonary fibrosis by determining the degree of collagen accumulation (Masson's Trichrome).
Pulmonary fibrosis was evaluated histomorphometricly by determining the percentage of field with collagen accumulation lung sections stained with Masson's Trichrome.

[2] = system: Alk-3 deleted mice and control mice, NTN; test: NTN in Alk-3 deleted (γGT-Cre; Alk3 flox/flox) and control mice; format: in vivo
Method: FIG. 76A-FIG. 76T THR-123 acts on tubule Alk3 as a receptor in kidney disease models. FIG. 76A-FIG. 76D, The effect of THR-123 on the IRI model kidney injury in Alk3^flox/flox and […]GTCre; Alk3^flox/flox mice. After ischemia reperfusion injury the mice were given THR-123 orally (5 mg/kg/day) till the day of sacrifice. FIG. 76A-FIG. 76C, the representative H&E staining picture of indicated group of mice are shown. FIG. 76D. Percentage renal tubular necrosis in IRI. Ten fields in each group were analyzed. Data are shown as mean±s.e.m. in the graph. FIG. 76E-FIG. 76T, The effect of THR-123 on the NTN model kidney injury in Alk3^flox/flox and gGTCre; Alk3^flox/flox mice. Six weeks after NTN was introduced in the indicated groups of mice, mice were treated with PBS or THR-123 orally. FIG. 76E-FIG. 76H, the representative MTS staining picture of indicated group of mice are shown. FIG. 76I, Morphometric analyses from 9 weeks of NTN models in indicated groups. FIG. 76J-FIG. 76N, Macrophage accumulation analysis in the kidney of NTN model in Alk3^flox/flox and gGTCre; Alk3^flox/flox mice. FIG. 76J-FIG. 76M, Mac-1 immunofluorescence study of indicated groups of mice. FIG. 76N, The number of macrophages per field of view (×400 magnification) was assessed by counting positively labeled cells in 5 random fields of view per slide, with 5 slides per experimental group. Data are shown as mean±s.e.m. in the graph. FIG. 76O-FIG. 76S, EMT analysis, FIG. 76O-FIG. 76R, E-cadherin/FSP1 immunolabeling of kidney in NTN-induced Alk3^flox/flox and GTCre; Alk3^flox/flox mice treated with either PBS or THR-123. FIG. 76S. Percent of E-cadherin/FSP1 double positive tubule. 500 tubules per slide, 5 slides per experimental group were analyzed. Data are expressed as mean±s.e.m. in the graph. FIG. 76T, Blood urea nitrogen measurement in 6 and 9 weeks of NTN in indicated groups of mice (all n=4).
FIG. 79A-FIG. 79D. Tubule cell apoptosis was analyzed in frozen kidney sections of indicated groups of animals by TUNEL staining. Representative pictures were shown. FIG. 79D. Quantification of TUNEL positive tubule cells. The number of TUNEL positive tubules per field of view (×200 magnification) was assessed by counting positively labeled cells in 5 random fields of view per slide, with 5 slides per experimental group.
Alk-3 flox mice are provided by Dr. Yuji Mishina, National Institutes of Health with material transfer agreements. γGT-Cre mice are provided from Dr. Eric Neilson, Vanderbilt University Medical Center. NTN is induced by the method described above.

[3] = system: cisplatin-induced nephrotoxicity in rats; test: Cisplatin-induced nephrotoxicity in rats; format: in vivo; settings: cisplatin plus THR-123 versus cisplatin alone
Source text: FIG. 38 Tumor necrosis factor-a (TNF-a) production via p38 mitogen-activated protein kinase (MAPK) is one of the pivotal mechanisms in the development of AKI induced by a nephrotoxic agent, cisplatin (Ramesh, G and Reeves, W B. Am J Physiol Renal Physiol 289:F166-F174, 2005). Therefore THR-123 was further examined to determine if the compound is capable of inhibiting cisplatin-induced nephrotoxicity in animals. The upper right and left panels in the figure show Kidney sections immunostained for ICAM-1 expression and the lower right and left panels show immunostaining for the presence of macrophages. The kidney sections in the left column were treated with cisplatin alone and the right column panels were treated with cisplatin and THR-123. Arrows in the upper panel indicate ICAM-1 expression which was reduced by THR-123. Arrows in the lower panel indicate infiltration of macrophages as detected by Mac CD-68 staining, which was reduced by THR-123.

Smad 1/5/8 = Smad 1/5/8 phosphorylation and nuclear translocation in HK-2 cells; format: cell-based, human
Method: Human renal proximal tubule epithelial cells (HK-2) were incubated in the presence (right panel) and absence (left panel) of THR-123. The cells were washed, and then incubated with the primary antibody against phospho Smad 1/5/8, followed by immunostaining with a fluorescently labeled secondary antibody. The significance of pSmad 1/5/8 in renal fibrosis is tied to BMP7 suppression of TGF-β-dependent profibrotic pathways, which are central to renal fibrotic injury. Specifically, BMP7 suppression of such TGF-β-dependent profibrotic pathways is mediated in part by the activation of downstream BMP target proteins, Smad 1, 5, and 8. (Manson S R et al., J. Urol. 85:2523-30, 2011).

[4] = system: mice with ischemia reperfusion injury; test: Ischemia reperfusion injury (IRI) in mice; format: in vivo
Method: FIG. 55A-FIG. 55D The effect of THR-123 on acute tubular damage induced by ischemia reperfusion injury. Ischemia reperfusion injury (IRI) was induced by the clamping of the left renal pedicle for 25 minutes. After ischemia reperfusion injury the mice were given THR-123 orally (5 mg/kg/day) or PBS till the day of sacrifice. […] Arrows indicate necrotic tubules. FIG. 55B. […] FIG. 55C. […] Ten fields in each group were analyzed. FIG. 55D. Blood urea nitrogen estimated by quantichrome colorimetric urea assay at day 7 IRI. No difference in the all groups. PBS group (n=5) and THR-123-treated group (n=4) are analyzed. Data are shown as mean±s.e.m. in the graph.
7B16 mice are used in this study. Mice are anesthetized with the mixture of ketamine and xylazine and the left renal pedicle clamped for 25 minutes. At same day after surgery, THR-123 (p.o. 5 mg/Kg/day) or vehicle treatments are started. At 7 days after surgery, mice are sacrificed.

Substance: (H)-CYFDDSSNVLCKKYRS-(OH) (H-CYFDDSSNVLCKKYRS-OH; disulfide 1-11; SMILES CC(C)C[C@@H]1NC(=O)[C@H](C(C)C)NC(=O)[C@H](CC(N)=O)NC(=O)[C@H](CO)NC(=O)[C@H](CO)NC(=O)[C@H](CC(=O)O)NC(=O)[C@H](CC(=O)O)NC(=O)[C@H](Cc2ccccc2)NC(=O)[C@H](Cc2ccc(O)cc2)NC(=O)[C@@H](N)CSSC[C@@H](C(=O)N[C@@H](CCCCN)C(=O)N[C@@H](CCCCN)C(=O)N[C@@H](Cc2ccc(O)cc2)C(=O)N[C@@H](CCCNC(=N)N)C(=O)N[C@@H](CO)C(=O)O)NC1=O) [SEQ ID NO: 1]
- pulmonary fibrosis (histomorphometric analysis of lung tissue) ([1]; daily oral dose of 5 mg/kg): significantly less pulmonary fibrosis
- survival rate at 16 days ([1]; daily oral dose of 5 mg/kg, vehicle 100% mortality by 8 days): 80%
- lung fibrosis score (percentage of field with collagen accumulation, Masson's Trichrome) ([1]; day 16, oral, vehicle 31% at ten days): 16%
- survival by day 16 ([1]; oral): survival of all mice
- renal function (blood urea nitrogen), NTN ([2]; Alk3-deleted mice): not realized
- EMT program in the tubules, NTN ([2]; Alk3 deleted mice): did not inhibit
- apoptosis, NTN kidney ([2]; Alk3 deleted mice): no effect on apoptosis
- macrophage accumulation in the kidney, NTN ([2]; Alk3 deleted mice): did not inhibit
- renal injury and fibrosis, NTN ([2]; Alk-3 deleted mice): no efficacy
- EMT program in the tubules, NTN ([2]; control mice): inhibition
- macrophage accumulation in the kidney, NTN ([2]; control mice): inhibition
- renal function (blood urea nitrogen), NTN ([2]; control mice): restored renal function
- renal injury and fibrosis, NTN ([2]; control mice): successful in controlling renal injury and fibrosis
- apoptosis, NTN kidney ([2]; wild type kidney): inhibit apoptosis
- ICAM-1 expression in kidney sections [3]: reduced
- infiltration of macrophages (Mac CD-68 staining) [3]: reduced
- Smad 1/5/8 phosphorylation and nuclear translocation (Smad 1/5/8): induces Smad 1/5/8 phosphorylation and nuclear translocation
- blood urea nitrogen at day 7 IRI ([4]; THR-123 orally 5 mg/kg/day versus PBS): No difference
- renal tubular necrosis / tubular damage ([4]; THR-123 orally 5 mg/kg/day, versus PBS, day 7): significantly less tubular damage
